Assay results published in patent US6642225B2, “Diazacycloalkanedione derivatives” (Novartis AG, priority 2000, dated 2003).
pIC50: −log10 of the molar value.

Legend:
[1] = tested on: mBSA antigen-induced arthritis; assay: Mouse antigen-induced arthritis model; type: in vivo, OFA-1 mice; conditions: about 0.3 to 30 mg/kg p.o.
Experimental: iv) Mouse Antigen-induced Arthritis Model The test for rheumatoid arthritis is carried out by a modification of that described by Van de Loo et al., Arthritis Rheum. 1995; 35:164-172, e.g., as follows: Female OFA-1 mice are sensitised intradermally on the back at two sites to methylated bovine serum albumin (mBSA) homogenised 1:1 with complete Freund's adjuvant on days −21 and −14 (0.1 ml containing 1 mg/ml mBSA). On day 0, the right knee receives 10 μl of 10 mg/ml mBSA in 5% glucose solution (antigen injected knee), while the left knee receives 10 μl of 5% glucose solution alone (vehicle injected knee). The diameters of the left and right knees are then measured using calipers immediately after the intra-articular injections and again on days 2, 4, 7, 9, 11 and 14. […] Right knee swelling is calculated as a ratio of left knee swelling, and the R/L knee swelling ratio plotted against time to give Area Under the Curve (AUC) graphs for control and treatment groups. The percentage inhibition of the individual treatment group AUCs are calculated vs the control group AUC (0% inhibition) using an Excel spreadsheet. […] After staining, the slides are number coded as left knee/right knee pairs from each animal and scored in a blinded fashion for inflammatory cell infiltrate/hyperplasia, joint damage/erosions and cartilage proteoglycan loss.

carrageenan paw swelling = assay: Rat carrageenan edema model; type: in vivo, OFA rats; conditions: about 0.3 to 30 mg/kg p.o.
Experimental: iii) Rat Carrageenan Edema Model Male OFA rats are treated orally with the compound to be tested or vehicle (saline). One to three hours later (0 hours) the rats receive a 100 μl intra-plantar injection of a 1% w/v carrageenan solution in 0.9% saline in the hind paw and the diameter of the paw is measured by means of a micro-calliper. The paw diameter measurements are repeated at times +3 and +5 hours after injection of the carrageenan.

human LFA-1 = biological target: T1, human LFA-1 (Homo sapiens, UniProt P20701); assay: Cell free assay: binding of soluble human ICAM-1 to immobilized human LFA-1
T1 construct: endogenous in cells; host or cells: JY cells (human lymphoblastoid B cell line)
T1 sequence (P20701 26-1170): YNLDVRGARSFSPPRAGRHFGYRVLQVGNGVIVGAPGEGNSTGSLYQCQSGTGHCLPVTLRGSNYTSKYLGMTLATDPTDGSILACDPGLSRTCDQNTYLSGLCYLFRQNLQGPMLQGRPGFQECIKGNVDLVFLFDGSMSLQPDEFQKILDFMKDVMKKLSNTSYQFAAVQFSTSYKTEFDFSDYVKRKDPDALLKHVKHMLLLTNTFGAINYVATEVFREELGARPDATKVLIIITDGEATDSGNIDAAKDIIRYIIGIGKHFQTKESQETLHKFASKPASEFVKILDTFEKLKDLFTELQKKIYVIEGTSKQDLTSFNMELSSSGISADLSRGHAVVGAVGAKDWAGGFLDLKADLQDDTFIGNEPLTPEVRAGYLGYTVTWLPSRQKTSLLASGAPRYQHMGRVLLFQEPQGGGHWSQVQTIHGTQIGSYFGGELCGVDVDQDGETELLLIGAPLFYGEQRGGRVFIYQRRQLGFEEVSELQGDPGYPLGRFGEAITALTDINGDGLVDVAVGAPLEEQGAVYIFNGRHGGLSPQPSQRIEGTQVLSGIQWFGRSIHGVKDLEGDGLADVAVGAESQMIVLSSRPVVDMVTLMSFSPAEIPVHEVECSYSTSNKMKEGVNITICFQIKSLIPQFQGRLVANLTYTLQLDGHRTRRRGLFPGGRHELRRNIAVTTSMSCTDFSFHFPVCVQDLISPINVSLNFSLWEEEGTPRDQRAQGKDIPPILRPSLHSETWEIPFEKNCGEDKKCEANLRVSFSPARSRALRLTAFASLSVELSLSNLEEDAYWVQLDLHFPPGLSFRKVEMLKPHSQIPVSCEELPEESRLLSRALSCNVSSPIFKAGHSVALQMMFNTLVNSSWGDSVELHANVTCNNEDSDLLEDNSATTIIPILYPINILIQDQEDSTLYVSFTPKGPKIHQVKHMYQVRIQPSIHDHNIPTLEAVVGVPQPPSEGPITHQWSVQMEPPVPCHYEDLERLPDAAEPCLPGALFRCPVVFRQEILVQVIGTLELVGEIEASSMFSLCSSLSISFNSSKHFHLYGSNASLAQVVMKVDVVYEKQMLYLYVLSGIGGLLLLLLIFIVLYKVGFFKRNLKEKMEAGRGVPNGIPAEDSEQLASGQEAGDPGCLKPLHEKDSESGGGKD
T1 sequence (P05107 23-769 partner): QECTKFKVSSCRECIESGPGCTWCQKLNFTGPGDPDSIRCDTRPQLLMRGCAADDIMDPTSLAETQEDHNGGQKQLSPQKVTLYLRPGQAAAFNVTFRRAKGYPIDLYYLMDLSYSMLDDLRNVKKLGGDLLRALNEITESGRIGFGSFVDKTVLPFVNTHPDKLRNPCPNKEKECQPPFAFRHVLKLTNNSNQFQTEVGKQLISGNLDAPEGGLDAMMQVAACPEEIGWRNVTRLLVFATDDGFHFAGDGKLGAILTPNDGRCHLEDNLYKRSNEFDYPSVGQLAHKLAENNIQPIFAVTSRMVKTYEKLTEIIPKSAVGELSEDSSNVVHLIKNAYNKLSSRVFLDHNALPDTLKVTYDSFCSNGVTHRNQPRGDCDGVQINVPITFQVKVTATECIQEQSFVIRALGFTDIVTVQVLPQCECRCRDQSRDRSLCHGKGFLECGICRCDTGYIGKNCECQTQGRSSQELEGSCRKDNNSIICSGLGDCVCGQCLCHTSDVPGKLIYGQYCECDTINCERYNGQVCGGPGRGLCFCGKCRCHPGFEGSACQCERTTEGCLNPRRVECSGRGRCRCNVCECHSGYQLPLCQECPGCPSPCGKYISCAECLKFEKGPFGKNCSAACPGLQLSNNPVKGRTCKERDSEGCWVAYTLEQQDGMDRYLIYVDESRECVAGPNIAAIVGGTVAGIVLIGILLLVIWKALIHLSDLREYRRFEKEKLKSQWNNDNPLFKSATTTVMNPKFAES
Experimental: A. In Vitro: Cell Free Assay
The assay measures the binding of soluble human ICAM-1 to immobilized human LFA-1. LFA-1 is purified from JY cells, a human lymphoblastoid B cell-line, by immunoaffinity chromatography as described by Dustin et al. (J. Immunol. 148, 2654-2663, 1992). ICAM-1 mouse Cκ fusion protein (ICAM-1) is produced using the baculovirus system as described by Weitz-Schmidt et al. (Anal. Biochem.238, 184-190, 1996).
Purified LFA-1 is diluted 1:20 in phosphate buffered saline (PBS) containing 2 mM MgCl2, pH 7.4 and coated onto microtitre plates (Nunc) at 37° C. for 3 h. Plates are blocked with 1% heat-treated BSA in PBS for 2 hours at 37° C. followed by a washing step using PBS, 2 mM MgCl2, 1% fetal calf serum, pH 7.4 (assay buffer). Compounds dissolved at 10 mM in DMSO are diluted in assay buffer and added to the plates. Biotinylated recombinant ICAM-1 in assay buffer (6 μg/ml) is added and allowed to bind at 37° C. for one hour. After incubation, wells are washed with assay buffer. Streptavidin-peroxidase diluted 1:5000 in assay buffer is added and incubated for 45 min at 37° C. Plates are then washed with assay buffer and 2,2′-azino-bis(3-ethylbenzothiazoline-6 sulfonic acid) diammonium salt substrate solution is added to each well. The reaction is stopped after 20 min and bound ICAM-1 is determined by measuring the optical density at 405 nm in a microplate reader.

CNC(=O)[C@H](Cc1ccc2ccccc2c1)N1CCC(=O)N(Cc2cnc3ccccc3c2)[C@@H](CC(C)C)C1=O [Example 1, 1H-1,4-Diazepine-1-acetamide, hexahydro-N-methyl-3-(2-methylpropyl)-α-[(2-naphthalenyl)methyl]-2,5-dioxo-4-[(3-quinolinyl)methyl]-, (αS,3S)-]
inhibition of knee swelling [1]: inhibits knee swelling | histological damage to the knee ([1]; day 14 histology): significantly reduces the histological damage to the knee | inhibition of paw swelling (carrageenan paw swelling): inhibits paw swelling | pIC50 (human LFA-1): ~7.52
